“Also recorded” adds a separate entry of the source. Where a name gives a salt, the structure may show the parent alone.
Tests used:
[1] = system: 5xFAD mice; assay: Radial water maze test of 5xFAD mice; type: in vivo; conditions: for number of errors in the trial (memory), radial water maze: 5xFAD mice, compared to wild type
From the text: B 6SJL-Tg(APPSwF1Lon,PSEN1*M146L*L286V)6799Vas/Mmjax transgenic (5xFAD) mice, which have 5 familial AD (FAD) mutant human genes, show pathological and behavioral signs of AD, including Aβdeposition at 2 months and progressive deficits in behavior. 5xFAD mice have successfully modeled behavior deficits seen in Alzheimer's disease in previous studies, and have been previously evaluated using the Morris water maze, open field test, and radial arm water maze. We purchased 2 males and 4 females heterozygous 5XFAD mice as breeders. We housed breeders in pairs of one male and 2 females. Gestation lasts 19-21 days. Pups (about 5-6 in each delivery) were weaned at (removed from breeding cage and separated) at 3 weeks of age. Tissue for genotyping was collected at the same time that ID numbers are applied. The genotyping was performed by PCR amplification of the SFAD gene. We used male 5xFAD mice (8months old) for this study.
The radial water maze test was performed using a maze with six arms (32 cm length and 19 cm width) radiated from the central circular region (36 cm diameter) placed in a circular pool (100 cm diameter). A clear round platform (9 cm diameter) was placed in one of the arms at 1.5 cm beneath the surface of the water, which was opacified with nontoxic white paint. The water was kept between 22-25° C. Surrounding the pool, a visual cue was placed at each end of the radial arms. Each session consists of four acquisition trials (T1-T4), followed by a 30-min delay interval and then a retention trial (T5). For each session, an escape platform was placed at the end of the goal arm, which was different between sessions. At the beginning of each trial, the mice were placed at the end of one of the remaining five non-goal arms. The mouse was positioned facing the wall, away from the center. Each trial lasts 60 seconds, during which an animal was allowed to swim in order to find the platform. The latency to locate the submerged platform and the number of entries to the non-goal arms were recorded as errors. […]

[2] = Kidney or liver toxicity; conditions: in vivo
[3] = system: neural stem cells; assay: Cell counting after immunohistochemistry of postmortem brains (BrdU, βIII-tublin, GFAP); type: in vivo, mice
Description: Once mice reach the criterion for the pre-treatment behavioral testings, posiphen (25 mg/kg) was injected (s.c.) once a day for 7 consecutive days; followed by a combination of posiphen (25 mg/kg) and NBI-18 (0, 3, 10 mg/kg) was, injected (s.c.) once a day, for seven consecutive days; followed by another series of posiphen (25 mg/kg) injections (s.c.) once a day, for seven consecutive days. On the final two days of the combination injections, an injection of BrdU (100 mg/kg) was administered separately (s.c.) once per day.

[4] = system: cholinesterase; conditions: Greig et al., U.S. Patent Pub. 2004/0024043 and 2004/0138282; cited from earlier work
[5] = system: APP; conditions: AD model animals and patients; cited from earlier work
[6] = system: βAPP; conditions: Greig et al., U.S. Patent Pub. 2004/0024043 and 2004/0138282; cited from earlier work

Row | Structure (SMILES) | number of errors in the trial (memory), radial water maze ([1]; NBI-18 3 mg/kg s.c. alone) | memory function / performance in memory tasks ([1]; AD model animals, summary statement, dose not stated) | dose range without detected kidney or liver toxicity [2] | new neurons formed / neurogenesis in the brain ([3]; AD model mice, NBI-18 row: without Posiphen treatment, combination row: vs untreated AD model group) | dose at which the effect on stem cell proliferation is maxed out ([3]; brains of the animals used in the behavioral test) | neural stem cell proliferation / number ([3]; brains of the animals used in the behavioral test, maleate) | cholinesterase activity [4] | APP [5] | number of errors in the trial (memory), radial water maze ([1]; Posiphen 25 mg/kg s.c. alone) | βAPP levels in the brain [6]
1 | CN1Cc2nc(N3CCNCC3)ncc2C1=O [NBI-18, 6-Methyl-2-(1-piperazinyl)-6,7-dihydro-5H-pyrrolo[3,4-d]-pyrimidin-5-one maleate] | showed significant memory deficit compare to the wild type | does not help to improve memory function | up to 1000 mg/kg | does not reflect the increase of new neurons formed | 3 mg/kg | significantly increases endogenous neural stem cells; also recorded: increased stem cell proliferation | – | – | – | –
2 | CN1CC[C@]2(C)c3cc(OC(=O)Nc4ccccc4)ccc3N(C)[C@H]12 [Posiphen, (+)-phenserine] | – | – | – | – | – | – | lacks cholinesterase activity | reduction of APP | showed significant memory deficit compare to the wild type | dramatically reduces βAPP levels in the brain
